Reference: ChEMBL document CHEMBL4190267, “Discovery of potent molecular chimera (CM358) to treat human metastatic melanoma” (Eur J Med Chem, 2017)
The source made the active and inactive calls. The calls are words filed in the database; no cut-off is given here.

Legend:
PC-3 = experiment: Growth inhibition of human PC3 cells preincubated for 6 hrs followed compound washout measured after 24 hrs by XTT assay; format: functional
WM 266-4 [1] = experiment: Growth inhibition of human WM266.4 cells preincubated for 6 hrs followed compound washout measured after 24 hrs by XTT assay; format: functional
WM 266-4 [2] = experiment: Growth inhibition of human WM266.4 cells at 25 uM after 24 hrs by XTT assay; format: functional, cell-based
[3] = Half life in human WM266.4 cells by LC-MS analysis; format: ADME, cell-based, WM 266-4
[4] = Drug metabolism in human WM266.4 cells assessed as chlorambucil after 48 hrs by LC-MS analysis; format: ADME, cell-based; conditions: wm 266-4, 48 h
[5] = Drug metabolism in human WM266.4 cells assessed as amonafide after 48 hrs by LC-MS analysis; format: ADME, cell-based; conditions: wm 266-4, 48 h
WM 266-4 [6] = experiment: Induction of apoptosis in human WM266.4 cells assessed as live cells at 10 uM after 2 hrs by Annexin V-FITC/propidium iodide staining based flow cytometry (reference value: 94.7%); format: functional
WM 266-4 [7] = experiment: Induction of apoptosis in human WM266.4 cells assessed as necrotic cells at 10 uM after 2 hrs by Annexin V-FITC/propidium iodide staining based flow cytometry (reference value: 1.22%); format: functional
WM 266-4 [8] = experiment: Induction of apoptosis in human WM266.4 cells assessed as live cells at 10 uM after 8 hrs by Annexin V-FITC/propidium iodide staining based flow cytometry (reference value: 94.7%); format: functional
WM 266-4 [9] = experiment: Induction of apoptosis in human WM266.4 cells assessed as early apoptotic cells at 10 uM after 8 hrs by Annexin V-FITC/propidium iodide staining based flow cytometry (reference value: 2.64%); format: functional
WM 266-4 [10] = experiment: Induction of apoptosis in human WM266.4 cells assessed as late apoptotic cells at 10 uM after 24 hrs by Annexin V-FITC/propidium iodide staining based flow cytometry (reference value: 1.41%); format: functional
WM 266-4 [11] = experiment: Induction of apoptosis in human WM266.4 cells assessed as necrotic cells at 10 uM after 24 hrs by Annexin V-FITC/propidium iodide staining based flow cytometry (reference value: 1.22%); format: functional
WM 266-4 [12] = experiment: Induction of apoptosis in human WM266.4 cells assessed as early apoptotic cells at 25 uM after 2 hrs by Annexin V-FITC/propidium iodide staining based flow cytometry (reference value: 2.64%); format: functional
WM 266-4 [13] = experiment: Induction of apoptosis in human WM266.4 cells assessed as live cells at 25 uM after 8 hrs by Annexin V-FITC/propidium iodide staining based flow cytometry (reference value: 94.7%); format: functional
WM 266-4 [14] = experiment: Induction of apoptosis in human WM266.4 cells assessed as late apoptotic cells at 25 uM after 8 hrs by Annexin V-FITC/propidium iodide staining based flow cytometry (reference value: 1.41%); format: functional
WM 266-4 [15] = experiment: Induction of apoptosis in human WM266.4 cells assessed as live cells at 25 uM after 24 hrs by Annexin V-FITC/propidium iodide staining based flow cytometry (reference value: 94.7%); format: functional
WM 266-4 [16] = experiment: Induction of apoptosis in human WM266.4 cells assessed as early apoptotic cells at 25 uM after 24 hrs by Annexin V-FITC/propidium iodide staining based flow cytometry (reference value: 2.64%); format: functional
WM 266-4 [17] = experiment: Induction of apoptosis in human WM266.4 cells assessed as late apoptotic cells at 25 uM after 24 hrs by Annexin V-FITC/propidium iodide staining based flow cytometry (reference value: 1.41%); format: functional
WM 266-4 [18] = experiment: Induction of apoptosis in human WM266.4 cells assessed as necrotic cells at 25 uM after 24 hrs by Annexin V-FITC/propidium iodide staining based flow cytometry (reference value: 1.22%); format: functional
WM 266-4 [19] = experiment: Induction of necrosis in human WM266.4 cells at 25 uM after 2 to 6 hrs by Annexin V-FITC/propidium iodide staining based fluorescence microscopic method; format: functional, cell-based
WM 266-4 [20] = experiment: Cell cycle arrest in human WM266.4 cells assessed as accumulation at G1 phase at 10 uM after 2 hrs by propidium iodide staining based flow cytometry (reference value: 59%); format: functional
WM 266-4 [21] = experiment: Cell cycle arrest in human WM266.4 cells assessed as accumulation at S phase at 10 uM after 8 hrs by propidium iodide staining based flow cytometry (reference value: 27%); format: functional
WM 266-4 [22] = experiment: Cell cycle arrest in human WM266.4 cells assessed as accumulation at S phase at 10 uM after 24 hrs by propidium iodide staining based flow cytometry (reference value: 27%); format: functional
[23] = target: DNA topoisomerase 2-alpha (Homo sapiens) (UniProt P11388); experiment: Inhibition of human topoisomerase-2alpha assessed as reduction in enzyme-mediated decatenation at 100 uM using kinetoplast DNA as substrate after 25 mins by ethidium bromide staining based agarose gel electrophoresis method
[24] = target: DNA topoisomerase 2-alpha (Homo sapiens) (UniProt P11388); experiment: Inhibition of human topoisomerase-2alpha assessed as reduction in enzyme-mediated decatenation at 25 uM using kinetoplast DNA as substrate after 25 mins by ethidium bromide staining based agarose gel electrophoresis method
Mus musculus [25] = experiment: Toxicity in athymic Foxn1 nu mouse assessed as effect on body weight at 10 mg/kg, ip administered once daily for 3 days followed by resting period of 4 days repeated for 4 weeks; format: organism-based; conditions: in vivo
Mus musculus [26] = experiment: Toxicity in athymic Foxn1 nu mouse assessed as abnormal gross behavioral changes at 10 mg/kg, ip administered once daily for 3 days followed by resting period of 4 days repeated for 4 weeks; format: organism-based; conditions: in vivo
Mus musculus [27] = experiment: Toxicity in athymic Foxn1 nu mouse assessed as abnormal physiological changes at 10 mg/kg, ip administered once daily for 3 days followed by resting period of 4 days repeated for 4 weeks; format: organism-based; conditions: in vivo
WM 266-4 [28] = experiment: Antitumor activity against human WM266.4 cells xenografted in athymic Foxn1 nu mouse assessed as tumor growth inhibition at 10 mg/kg, ip administered once daily for 3 days followed by resting period of 4 days repeated for 4 weeks starting from 5 days post tumor inoculation measured on day 21 relative to control; format: functional; conditions: WM 266-4, ip, read-out: TGI
WM 266-4 [29] = experiment: Antitumor activity against human WM266.4 cells xenografted in athymic Foxn1 nu mouse assessed as tumor growth inhibition at 25 mg/kg, ip administered once daily for 3 days followed by resting period of 4 days repeated for 4 weeks starting from 5 days post tumor inoculation measured on day 21 relative to control; format: functional; conditions: WM 266-4, ip, read-out: TGI
WM 266-4 [30] = experiment: Antitumor activity against human WM266.4 cells xenografted in athymic Foxn1 nu mouse assessed as tumor growth inhibition at 10 mg/kg, ip administered once daily for 7 days followed by resting period of 2 days repeated for 4 weeks starting from 5 days post tumor inoculation measured on day 21 relative to control; format: functional; conditions: WM 266-4, ip, read-out: TGI
WM 266-4 [31] = experiment: Antitumor activity against human WM266.4 cells xenografted in athymic Foxn1 nu mouse assessed as tumor growth inhibition at 10 mg/kg, ip administered once daily for 7 days followed by resting period of 2 days repeated for 4 weeks starting from 5 days post tumor inoculation measured on day 19; format: functional, organism-based
WM 266-4 [32] = experiment: Antitumor activity against human WM266.4 cells xenografted in athymic Foxn1 nu mouse assessed as increase in 50% survival of mouse at 10 mg/kg, ip administered once daily for 7 days followed by resting period of 2 days repeated for 4 weeks starting from 5 days post tumor inoculation relative to control; format: functional
WM 266-4 [33] = experiment: Antitumor activity against human WM266.4 cells xenografted in athymic Foxn1 nu mouse assessed as mouse survival at 10 mg/kg, ip administered once daily for 3 days followed by resting period of 4 days repeated for 4 weeks starting from 5 days post tumor inoculation relative to control; format: functional; conditions: WM 266-4, ip

DNA topoisomerase 2-alpha (Homo sapiens), sequence (P11388 whole entry): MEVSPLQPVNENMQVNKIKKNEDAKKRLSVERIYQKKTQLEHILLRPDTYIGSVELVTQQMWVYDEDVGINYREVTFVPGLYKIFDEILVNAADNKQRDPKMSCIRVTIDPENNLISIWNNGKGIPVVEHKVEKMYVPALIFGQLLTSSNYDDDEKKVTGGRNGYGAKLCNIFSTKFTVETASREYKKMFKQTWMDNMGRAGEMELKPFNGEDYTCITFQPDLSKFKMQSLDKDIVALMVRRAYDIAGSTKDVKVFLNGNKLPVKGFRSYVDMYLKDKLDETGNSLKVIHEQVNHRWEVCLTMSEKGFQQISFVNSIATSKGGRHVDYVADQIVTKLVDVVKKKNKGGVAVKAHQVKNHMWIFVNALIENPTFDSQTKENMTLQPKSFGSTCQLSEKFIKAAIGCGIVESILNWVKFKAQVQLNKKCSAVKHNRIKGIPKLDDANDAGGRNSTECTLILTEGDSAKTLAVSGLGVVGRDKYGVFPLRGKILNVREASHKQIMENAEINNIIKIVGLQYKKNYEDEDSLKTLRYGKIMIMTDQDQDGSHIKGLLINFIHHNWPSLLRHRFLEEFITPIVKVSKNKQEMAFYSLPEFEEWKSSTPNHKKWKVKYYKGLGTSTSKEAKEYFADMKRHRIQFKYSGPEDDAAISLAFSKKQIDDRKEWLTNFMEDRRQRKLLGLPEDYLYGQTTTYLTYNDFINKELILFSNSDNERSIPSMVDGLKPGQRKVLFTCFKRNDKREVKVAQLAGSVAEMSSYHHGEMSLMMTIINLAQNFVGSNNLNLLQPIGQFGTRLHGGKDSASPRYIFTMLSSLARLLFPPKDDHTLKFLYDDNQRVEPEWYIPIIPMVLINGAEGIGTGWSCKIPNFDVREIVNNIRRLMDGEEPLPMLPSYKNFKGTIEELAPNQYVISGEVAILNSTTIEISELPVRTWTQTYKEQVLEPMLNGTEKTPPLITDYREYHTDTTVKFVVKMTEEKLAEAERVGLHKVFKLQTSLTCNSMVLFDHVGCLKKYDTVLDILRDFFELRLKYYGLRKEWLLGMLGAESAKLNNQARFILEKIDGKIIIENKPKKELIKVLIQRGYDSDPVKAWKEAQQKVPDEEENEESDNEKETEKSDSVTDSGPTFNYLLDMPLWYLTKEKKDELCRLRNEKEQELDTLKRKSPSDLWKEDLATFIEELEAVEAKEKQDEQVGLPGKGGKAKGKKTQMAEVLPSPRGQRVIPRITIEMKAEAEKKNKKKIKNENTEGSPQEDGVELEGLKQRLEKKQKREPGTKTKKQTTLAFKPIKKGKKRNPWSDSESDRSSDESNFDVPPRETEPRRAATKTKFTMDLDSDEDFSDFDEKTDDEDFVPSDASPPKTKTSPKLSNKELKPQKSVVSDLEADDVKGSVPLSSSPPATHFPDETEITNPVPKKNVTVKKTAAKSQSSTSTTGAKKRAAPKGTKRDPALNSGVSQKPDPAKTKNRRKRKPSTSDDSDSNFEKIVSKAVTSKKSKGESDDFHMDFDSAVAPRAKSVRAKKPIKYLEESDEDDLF

Compound: CN(C)CCN1C(=O)c2cccc3cc(NC(=O)CCCc4ccc(N(CCCl)CCCl)cc4)cc(c23)C1=O.O=C(O)C(F)(F)F
- GI50 (PC-3): 7.1 µM
- GI50 (WM 266-4 [1]): 8.8 µM
- growth inhibition (GI) (WM 266-4 [2]): Active
- half-life [3]: 25 h
- Drug metabolism [4]: Metabolite_Notdetected
- Drug metabolism [5]: Metabolite_Notdetected
- Activity (WM 266-4 [6]): 86.9%
- Activity (WM 266-4 [7]): 6.58%
- Activity (WM 266-4 [8]): 82.4%
- Activity (WM 266-4 [9]): 6.66%
- Activity (WM 266-4 [10]): 1.29%
- Activity (WM 266-4 [11]): 10.3%
- Activity (WM 266-4 [12]): 6.79%
- Activity (WM 266-4 [13]): 61.1%
- Activity (WM 266-4 [14]): 5.47%
- Activity (WM 266-4 [15]): 40%
- Activity (WM 266-4 [16]): 18.8%
- Activity (WM 266-4 [17]): 19.8%
- Activity (WM 266-4 [18]): 21.4%
- Activity (WM 266-4 [19]): Active
- Activity (WM 266-4 [20]): 39%
- Activity (WM 266-4 [21]): 46%
- Activity (WM 266-4 [22]): 38%
- inhibition [23]: Active
- inhibition [24]: Active
- Activity (Mus musculus [25]): Non-Toxic
- Activity (Mus musculus [26]): Non-Toxic
- Activity (Mus musculus [27]): Non-Toxic
- inhibition in vivo at 10 mg/kg (WM 266-4 [28]): 40%
- inhibition in vivo at 25 mg/kg (WM 266-4 [29]): 46%
- inhibition in vivo at 10 mg/kg (WM 266-4 [30]): 40%
- TGI (WM 266-4 [31]): Active
- Activity (WM 266-4 [32]): 24%
- survival at 10 mg/kg (WM 266-4 [33]): 60%
